Assay results reported in the NIST ThermoML archive (doi:10.1021/acs.jced.9b00308).
± gives the expanded uncertainty stated by the source.

Experiments:
[1] = Crystal 1; DSC
[2] = Molar enthalpy of transition or fusion; conditions: Crystal 1; DSC

Triple point temperature [1]: 393.93 ± 4.1 K
Molar enthalpy of transition or fusion [2]: 3.94 ± 0.717 kcal/mol
SMILES: O=C1Cc2ccccc2N1 [indolin-2-one]
